Results from publication PMC9108603, “Microbial Metabolite Inspired β‐Peptide Polymers Displaying Potent and Selective Antifungal Activity” (Advanced Science, 2022).

Tests used:
[1] = test system: C. albicans (R02 strain); assay: microbe, parasite or virus in culture; format: cell-based, Candida albicans; conditions: C. albicans R02; 0.5 × MIC of PDAP20 or 0.5 × MIC50 of fluconazole; 30 passages; duplicates
Procedure: Drug resistance studies. Drug resistance was induced by treating the C. albicans (R02 strain) repeatedly with antifungal agents. […]
albicans were tested for 30 passages of growth, which is long enough and adopted by many studies. C. albicans exposed to the 1/2 MIC concentration at the particular passage were re-grown to a logarithmic growth phrase and re-used for the subsequent passage’s MIC measurement for the same antifungal agent. Drug-resistant behavior of C. albicans was evaluated by recording the changes in the MIC compared to the original passage. All measurements were performed in duplicates. […]

[2] = test system: C. albicans (K1 strain); assay: Mitochondrial membrane potential (JC-1); format: cell-based, Candida albicans; conditions: 50 μg/mL PDAP20, 2 h, 3.0 × 10^6 CFU/mL; green = early stage of apoptosis
Procedure: NAC concentration without affecting the normal cell growth. Wells containing cells in RPMI and 40 mM H 2O2 was used as positive controls. Cell suspension of C. albicans (K1 strain) at 6.0 × 10^6 CFU/mL was treated with 20 μM 2,7-dichlorodi-hydrofluorescein diacetate (DCFHDA) for 20 min. Then 50 µL of the cell suspension was added to each well, except the blank control (RMPI containing DCFHDA without cells). The fluorescence intensity of the induced ROS production was measured every 30 min using a plate reader at λ ex = 485 nm and λem = 530 nm. The confocal observation of ROS production was conducted after C. albicans (K1 strain) suspension at 3.0 × 10^6 CFU/mL was incubated with 50 μg/mL CPM-PDAP 20 for 2 h. […]
Detection of mitochondrial membrane potential. Changes in mitochondrial membrane potential in C. albicans after incubation with PDAP 20 were analyzed using JC-1 as previously described. Mitochondrial membrane potential was detected with the fluorescent dye JC-1, which exists as aggregates (red) in normal cells with polarized mitochondria, whereas exists as monomers (green) in apoptotic cells with depolarized mitochondria. […]
DNA fragmentation assay. Apoptosis induced DNA fragments in C. albicans cells were analyzed using the TdT-mediated dUTP Nick-End Labeling (TUNEL) method. […]

[3] = test system: C. albicans (K1 strain); assay: Killing efficiency under energy depletion; format: cell-based, Candida albicans; conditions: 2 × MFC (50 μg/mL), colony count, n = 3
Procedure: Energy depletion analysis. For energy depletion experiments, cell suspension of C. albicans (K1 strain) at 3.0 × 10^6 CFU/mL was pretreated with RPMI containing 5 mM NaN 3 for 1 h. For antifungal efficiency assay, a fresh cell suspension pretreated or non-pretreated with NaN 3 were incubated with 50 μg/mL PDAP 20 or without an antifungal agent (as energy depletion control) for 24 h. The fresh cell suspension without antifungal agents before and after incubation with NaN 3 for 24 h were used as the controls, respectively. The suspensions were diluted and plated on YPD agar. The plates were incubated at 30 °C for 24 h and colony amounts were counted. The cell viability after incubation at 4 °C with 50 μg/mL PDAP 20 or without an antifungal agent (as positive control) was measured using the same method.
For the confocal assay, a fresh cell suspension pretreated or non-pretreated with NaN 3 was incubated with 50 μg/mL CPM-PDAP 20 for 24 h, respectively. […]
For flow cytometry experiment, a fresh cell suspension pretreated or non-pretreated with NaN 3 was incubated with 50 μg/mL CPM-PDAP 20 for 1 h and 2 h, respectively. Fungal cells were washed by PBS to remove polymers, and 5.0 × 10^4 cells were counted and anaysized. The polymer uptake was calculated by flow cytometry (Backman). Furthermore, cell suspensions were incubated with 10 μg/mL PI for 10 min for calculated PI uptake. […]

[4] = test system: Gram‐positive and Gram‐negative bacteria; assay: Antibacterial MIC test, summary over six bacteria; format: cell-based; conditions: S. aureus, S. epidermidis, B. subtilis, E. coli, A. baumannii, K. pneumoniae
Source text: aforementioned antifungal assay. Gram-positive bacteria ( S. aureus ATCC 6538, S.

[5] = test system: C. albicans biofilm formation; assay: Inhibition of biofilm formation (MTT); format: cell-based, Candida albicans; conditions: RPMI, 37 °C, 48 h, inhibits 80% of biofilm formation
Procedure: fresh non-treated cell suspension was used as a control. The bright field and FITC fluorescence were collected under 100× oil immersion lenses, with representative areas in the images electronically amplified sixfold.
Anti-biofilms. This study was conducted in 96-well plates (flat bottom and tissue-culture treated) by following the reported protocol with slight modifications. On each plate, wells containing RPMI only and cells in medium without any antifungal agent were used as the negative and positive control, respectively.
For biofilm formation: Freshly cultured fungal cells were collected to prepare the working suspension at 1.0 × 10^6 CFU/mL in RPMI. A two-fold serial dilution for each antifungal agent was prepared using a corresponding medium in a 96-well plate to give 100 µL of polymer solution in each well. 100 µL of the working suspension was added to each […]
followed by addition of 100 µL MTT solution (1 mg/mL). The MTT assay protocol was the same as the above mentioned protocol in fibroblast cell toxicity assay. This value was calculated from [% biofilm growth = (A polymer – Ablank)/(Acontrol – Ablank) × 100] and plotted against polymer concentration to give the dose-response graphs for inhibition of biofilm formation for each antifungal agent. The SMIC 80 value is the minimum concentration of a given agent that is necessary to inhibit 80% of fungal biofilm formation. […]

Q: Which results are given for poly(DL‐diaminopropionic acid) [PDAP20]?
A: Development of drug resistance on continuous treatment [1]: didn't acquire resistance; Mitochondrial membrane potential, JC‐1 stain [2]: cytosol green fluorescence; Fungal cells killed under energy depletion, NaN3 ([3]; 5 × 10^−3 M NaN3, 3.0 × 10^6 CFU/mL, 24 h): about 88%; Fungal cells killed under energy depletion, 4°C ([3]; at 4°C): about 88%; MIC against the six bacteria (summary) [4]: greater than 50 µg mL^−1; Concentration that resists biofilm formation (SMIC80) [5]: 6.3 µg/mL
